The results in this text go back to patent US20260035409A1, “BRINP2-DERIVED PEPTIDE COMPOSITIONS FOR TREATING OBESITY AND WEIGHT MANAGEMENT” (The Board of Trustees of the Leland Stanford Junior …, priority 2022, published 2026).

Series [1] concerns cfos expression in INS1 cells. The experiment in a line: cfos expression after 1 h peptide treatment, INS1 cells (qRT-PCR). The following applies: GLP-1 30 μM. Format: cell-based, rat. An excerpt: A feature of many known biologically active peptide hormones is the presence of an amidated C-terminus, which can be important for peptide bioactivity, as for gastrin-releasing peptide neuromedin-B, or for increased peptide stability, as for GLP-1. Therefore, the peptide library was constructed with an amide (NH2) group at the C-terminus as the only modification for comparative studies between peptides (FIG. 2a). In total, we generated a library of 100 peptides for functional biological screening. The peptide solubility was deduced according to its overall charge and reconstituted accordingly to optimal solubility. For all peptides, quality control by mass spectrometry was performed which validated the purity of the synthesized peptides for the primary screen according to their theoretical molecular weight (FIG. 8). Next, we functionally explored the potency of 100 of the peptides in activating cfos expression, a marker of cellular activity, after 1 hour of peptide treatment across two cell lines, Neuroscreen-1, NS-1 (rat neuronal origin) and INS1 cells (rat pancreatic origin) (FIG. 2b). […]
RNA expression analysis. […] Relative mRNA expression was determined by normalization with Ribosomalprotein S18 (Rsp18) levels using the ΔΔCt method. […]
Background: Real-time PCR tracks product formation cycle by cycle.

Series [2] is described as follows: fasting blood glucose in lean C57BL/6 mice after I.P. injection (no food). Format: in vivo. The following applies: fasted, peptides 5 mg/kg or GLP-1 2 mg/kg I.P. As for the experimental part: (§1) We next performed in vivo studies to determine whether any of these peptides affected food intake or blood glucose levels—two biological consequences of cfos activation. For acute food intake studies, lean, 8-week-old C57BL/6 mice (N=3/group) were fasted for 16 hours prior to administration of vehicle (saline), GLP-1 at 2 mg/kg, or FGF3_4, EDIL3_4, BRNP2_5, SCG1_9, FSTL4_3, and FGF5_5 peptides at 5 mg/kg. The food intake was then monitored over 6 hours.
(§2) For acute experiments, after overnight fasting for 16 hours, 8-week-old C57BL/6 mice were weighed and I.P. injected with either saline, GLP-1 at 2 mg/kg or peptides at 5 mg/kg (N=3 mice per group). Fasted blood glucose and food intake was then monitored for 6 hours.

Series [3] in a line: metabolic cages (Columbus comprehensive lab animal monitoring system) after single injection. The series is classed as in vivo, mice. As for the experimental part: To study the metabolic effects in more detail, we next used metabolic cages performed with a Columbus comprehensive lab animal monitoring system. C57BL6/J mice were acclimated to the cages and randomized into two groups, followed by an I.P. injection with either vehicle (saline) or 5 mg/kg BRP (N=4/group).
Food intake, energy expenditure and body composition measurements. Measurements of accumulated food intake and VO2 were performed using a Comprehensive Lab Animal Monitoring System at room temperature (20-22° C.) (Oxymax, Columbus Instruments) as previously described. Singly housed mice were acclimated in metabolic cages for at least 24 h before the start of experiment to minimize stress.

Series [4] relates to cfos expression in NS-1 cells. Nature of the series: cfos expression after 1 h peptide treatment, NS-1 cells (qRT-PCR). Format: cell-based, rat. The conditions noted are these: for cfos activation, alanine substitutions in the BRP sequence: 100 μg/kg, fully active = >15-fold over vehicle. An excerpt: A feature of many known biologically active peptide hormones is the presence of an amidated C-terminus, which can be important for peptide bioactivity, as for gastrin-releasing peptide neuromedin-B, or for increased peptide stability, as for GLP-1. Therefore, the peptide library was constructed with an amide (NH2) group at the C-terminus as the only modification for comparative studies between peptides (FIG. 2a). In total, we generated a library of 100 peptides for functional biological screening. The peptide solubility was deduced according to its overall charge and reconstituted accordingly to optimal solubility. For all peptides, quality control by mass spectrometry was performed which validated the purity of the synthesized peptides for the primary screen according to their theoretical molecular weight (FIG. 8). Next, we functionally explored the potency of 100 of the peptides in activating cfos expression, a marker of cellular activity, after 1 hour of peptide treatment across two cell lines, Neuroscreen-1, NS-1 (rat neuronal origin) and INS1 cells (rat pancreatic origin) (FIG. 2b). Glucagon-like peptide 1 (GLP-1^7-37), a 30-mer peptide ligand for the glucagon receptor family of G protein-coupled receptors in pancreatic 3-cells, was used as a positive control at 30 μM in INS1 cells. NGF (Nerve Growth Factor) was used as a positive control at 2 nM in NS-1 cells. Expectedly, we find that GLP-1^7-37 induces a ˜4-fold elevation of cfos expression in INS1 cells and NGF induces a ˜10-fold induction of cfos expression in NS-1 cells (FIG. 2b). Across the 100 tested peptides, 6 peptides, FGF34, EDIL3_4, BRNP2_5, SCG1_9, FSTL4_3, and FGF5_5 induced more than a >5-fold cfos expression across both cell lines compared with vehicle.
Cell culture. NS-1 rat neuronal cell line was cultured with RPMI 1640 medium (Gibco) supplemented with 10% FBS and 1% L-glutamine. INS-1 832/13 rat insulinoma cell line (#SCC207) was cultured with RPMI 1640 medium (Gibco) supplemented with 10% FBS, 1% L-glutamine, 10 mM HEPES, 1 mM NaPyruvate and 50 μM β-mercaptoethanol. For peptide activity assay, 3×10^5 NS-1 and INS1 cells were plated in 12 well-plates. The next day, cells were washed twice with warm PBS and starved in serum-free RPMI overnight. Indicated concentrations of NGF (2 nM) or GLP-1 (30 μM) or peptides (100 μg/ml) were added and incubated for 1 hr at 37° C. Cells were washed with PBS and RNA was isolated for cfos expression analysis.
RNA expression analysis. Total RNA was isolated using TRIzol (Thermo Fischer Scientific) and Rneasy mini kits (QIAGEN). RNA was reverse transcribed using the ABI high-capacity cDNA synthesis kit. For qRT-PCR analysis, cDNA, primers and SYBR-green fluorescent dye (ABI) was used. Relative mRNA expression was determined by normalization with Ribosomalprotein S18 (Rsp18) levels using the ΔΔCt method. The primer sequences used are […] and […] for Rsp18 and […] and […] for cfos.

Series [5] is described as follows: acute food intake in fasted lean C57BL/6 mice after I.P. injection. The conditions noted are these: 5 mg/kg I.P., up to 6 hours. The series is classed as in vivo. As for the experimental part:
as §1
Mouse studies. Animal experiments were performed per procedures approved by the Institutional Animal Care and Use Committee of the Stanford Animal Care and Use Committee (APLAC) protocol number #32982. C57BL/6J male mice were purchased from the Jackson Laboratory (#000664) and were used after 1 week of acclimatization after import into the facility. Unless otherwise stated, all mice were in good health and housed in a temperature-controlled (20-22° C.) room on a 12-hour light/dark cycle with ad lib access to food and water.
as §2

Series [6] is described as follows: open-field assay 30 min after single injection. Format: in vivo, mice. The conditions noted are these: 5 mg/kg I.P., 30 min post-injection. The method, then: Open field assay. 8-week-old C57BL/6 mice were transferred to the open-field facility and housed for 7 days for habituation before the test. Mice were weighed and then I.P. injected with either saline or BRP peptide at 5 mg/kg (N=15 mice per group, […] solution diluted in saline, total injection volume 100 ul per mouse). 30 min post-injection, the open-field test was performed in an Open Field Activity Arena (Med Associates Inc., St. Albans, VT. Model ENV-515) mounted with three planes of infrared detectors and within a specially designed sound-attenuating chamber (Med Associates Inc., St. Albans, VT. MED-017M-027). The arena was 43 cm (L)×43 cm (W)×30 cm (H), and the sound-attenuating chamber was 74 cm (L)×60 cm (W)×60 cm (H). Each mouse was placed in the corner of the testing arena and allowed to explore the arena for 10 minutes while being tracked by an automated tracking system. Data was analyzed using software Activity Monitor Version 7.8. Parameters analyzed include distance moved and time spent in the periphery and center of the arena. The periphery was defined as the zone 5 cm away from the arena wall.

Ends that are not written are not given here.

Take “GLP-1: 30-mer peptide ligand for the glucagon receptor family of GPCRs, positive control”: the “elevation of cfos expression (positive control)” value in series [1] is on record as ~4 fold. In series [2], the blood glucose result is reported as “lowered blood glucose”. In series [3] (single injection GLP-1 2 mg/kg), the energy expenditure result is given as “without affecting”, the “food intake (metabolic cages)” value is given as “acutely suppresses”, the locomotor activity entry is reported as “without affecting” and the meal size entry is listed as “acutely suppresses”. Take “NGF: Nerve Growth Factor, positive control in NS-1 cells [reference compound]”: the “induction of cfos expression (positive control)” value in series [4] (NGF 2 nM) was ~10 fold. Consider “THAILRRLFNLC [Ala substitution on residue 3]”, for which the “cfos activation, alanine substitutions in the BRP sequence” value (from here on “cfos activation, alanine substitutions”) in series [4] is recorded as “important to retain full activity”. Also, the “food intake, alanine substitutions compared with BRP” value (from here on “food intake … compared with BRP”) in series [5] is on record as “reduced efficacy in lowering food intake”. For the substance “THRALRRLFNLC [Ala substitution on residue 4]”, in series [5], the “food intake … compared with BRP” value is listed as “reduced efficacy in lowering food intake”. The same measure, in the same setting: next, “THRIARRLFNLC [Ala substitution on residue 5]”: “reduced efficacy in lowering food intake”.

On to “THRILARLFNLC [Ala substitution on residue 6]”, for which, in series [5], the “food intake … compared with BRP” value is listed as “reduced efficacy in lowering food intake”. On the same count and under the same terms, then “THRILRALFNLC [Ala substitution on residue 7]”, with “improves the appetite-suppressing effect of BRP”. Regarding “THRILRRAFNLC [Ala substitution on residue 8]”, the “cfos activation, alanine substitutions” value in series [4] is “important to retain full activity”. In addition, the “food intake … compared with BRP” value in series [5] is reported as “reduced efficacy in lowering food intake”. Take “THRILRRLFALC [Ala substitution on residue 10]”: the “cfos activation, alanine substitutions” value in series [4] was “important to retain full activity”. For the substance “THRILRRLFNLA [Ala substitution on residue 12]”, the “cfos activation, alanine substitutions” value in series [4] is given as “important to retain full activity”. Besides, the “food intake … compared with BRP” value in series [5] is recorded as “reduced efficacy in lowering food intake”. Turning to “THRILRRLFNLC (listed as Homo sapiens) [non-amidated BRP]”, in series [4] (100 μg/ml), the “cfos activity in words” value is reported as “no activity”.

As for THRILRRLFNLC-NH2 [BRP, THRILRRLFNLC], the ambulatory activity entry in series [3] (single I.P. injection 5 mg/kg) is “does not alter”. The “anxiety-like behavior (open field)” value in series [6] is “does not affect anxiety-like behavior”.
